# Results from patent US20090238799A1, “Conditionally-Immortalised Pancreatic Cells” (priority 2005, published 2009).
# What was measured:
# [1] = test system: Telomerase Reverse Transcriptase; experiment: Quantitative PCR of c-myc gene target induction in c-mycERTAM pancreatic cells; assay type: cell-based, human; details: pancreatic cells with c-mycERTAM, FIG. 4
# Method: For the PCR of the c-myc-ER and insulin, the titanium taq PCR kit (Clontech laboratories) was used, see Table 2 for the primers used. The PCR reaction conditions were standard. The PCR machine used was GeneAmp PCR system 2700. For analysis, 15 μl of the PCR product was mixed with 5 μl 6× loading dye solution (MBI R0611) and loaded to a gel. A 100 bp DNA ladder (MBI SM0241), 6 μl, containing 3 μg DNA was also loaded. The gel was a 2% agarose gel consisting of: TAE buffer (Invitrogen 15558-034), agarose 2%, ethidium bromide, 267 μg/ml. The gel was run with an electrophoresis power supply E835 (Consort) in a tray HU13 (Jencons) and finally scanned with Fluor-S multimager (Biorad) and analysed with the software Quantity One (Biorad). For quantitative PCR, total RNA is extracted from cell pellets using Trizol (Invitrogen) and RNeasy (Qiagen) spin-columns, prior to reverse-transcription with Superscript II (Invitrogen) to synthesize the first strand of cDNA, which can be used as a template in quantitative PCR. Each gene transcript is detected with a sequence-specific primer-probe combination which accumulates a fluorescent signal during each PCR cycle, detected using a Lightcycler 480 instrument (Roche); the transcription of each gene is normalized against loading-level by assessing a number of house-keeping genes, and expressed as a proportion of a calibrator sample.
# [2] = test system: cells containing the cmyERTam construct; experiment: Proliferation of cells containing the cmyERTam construct; assay type: cell-based, human; details: removal promotes differentiation
# Method: Before use, the following growth factors (GF) were added to HPM: 20 ng/ml epidermal growth factor (EGF) and 50 nM Gastrin I. After infection the pancreas cells were cultured in the presence of a supplement: 100 nM 4-Hydroxytamoxifen (4OHT).
# Pancreas cells or preselected pancreas cell aggregates were transferred on fibronectin coated or uncoated vessels. Pancreatic cells were infected with virus supernatant and 4-8 μg/ml hexadimethrine bromide. After 8-16 hours of infection, fresh HPM was added and the infection cycle was repeated the next day. The infection was done in 10 cm Petri dishes with cell confluency ranging from 40% to 70%. After infection 4OHT was added to the medium. After 2 days from completed infection the cells were passaged for expansion and/or selection.
substance,measurement,setting,value
4-hydroxytamoxifen [4-OHT],Telomerase Reverse Transcriptase (hTERT) induction,[1],induction
same,effect of addition on proliferation,[2],promotes proliferation
